Test results from patent US20100179188A1, “NITROXIDE RADICAL AS TREATMENT FOR NEURODEGENERATION” (Office of Technology Transfer, NIH, priority 2007, published 2010).

Target: T1, IRP1 (Mus musculus, UniProt P28271)
T1 sequence (P28271 1-889): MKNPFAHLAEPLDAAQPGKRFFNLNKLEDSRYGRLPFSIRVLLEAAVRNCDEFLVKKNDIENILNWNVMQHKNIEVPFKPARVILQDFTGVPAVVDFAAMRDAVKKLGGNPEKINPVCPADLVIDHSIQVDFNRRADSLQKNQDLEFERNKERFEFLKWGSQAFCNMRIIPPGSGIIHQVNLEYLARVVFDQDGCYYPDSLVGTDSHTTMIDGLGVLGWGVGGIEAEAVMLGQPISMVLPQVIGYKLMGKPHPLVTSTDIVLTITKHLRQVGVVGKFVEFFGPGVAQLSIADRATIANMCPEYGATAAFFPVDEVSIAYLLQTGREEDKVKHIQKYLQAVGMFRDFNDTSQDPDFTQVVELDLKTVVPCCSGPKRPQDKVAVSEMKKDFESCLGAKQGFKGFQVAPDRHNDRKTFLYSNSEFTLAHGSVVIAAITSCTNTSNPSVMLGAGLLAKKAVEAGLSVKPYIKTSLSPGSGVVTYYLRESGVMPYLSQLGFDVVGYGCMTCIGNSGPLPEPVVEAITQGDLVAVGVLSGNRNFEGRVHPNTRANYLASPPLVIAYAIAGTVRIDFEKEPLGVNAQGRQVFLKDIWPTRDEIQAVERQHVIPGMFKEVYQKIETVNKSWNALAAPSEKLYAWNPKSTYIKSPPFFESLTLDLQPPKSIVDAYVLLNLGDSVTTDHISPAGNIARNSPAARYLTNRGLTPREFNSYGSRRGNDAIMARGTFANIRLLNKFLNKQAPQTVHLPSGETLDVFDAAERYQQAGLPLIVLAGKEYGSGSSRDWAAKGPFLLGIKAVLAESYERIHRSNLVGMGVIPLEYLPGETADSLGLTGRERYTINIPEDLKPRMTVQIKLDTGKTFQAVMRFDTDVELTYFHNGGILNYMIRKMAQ
Assay: IRE binding activity of IRP1 in brain-region lysates of IRP2−/− mice (gel-shift)
Type: in vivo
Parameters: Lysates made from various brain regions of IRP2−/− mice; from tissue; host or cells: mouse brain (cerebellum, forebrain, brain-stem) lysates
Details: lysates from cerebellum, brain-stem and forebrain of IRP2−/− mice, Tempo1 diet vs control diet
Procedure: Diet: The mice were weaned 3-4 weeks after their birth. Immediately after weaning, mice were maintained on either a Tempo1-supplemented or control diet. In the Tempo1-supplemented diet, powdered Tempo1 was uniformly mixed with bacon-flavored mouse chow by a “cold press” technique (Bio-Serv, Frenchtown, N.J., USA) at a concentration of 10 mg/g of food. Bacon-flavored chow without Tempo1 was used as the control diet.
Tissue and lysate preparation: Animals were euthanized and tissues were frozen in liquid nitrogen immediately after harvesting, and stored at −80° C. under argon. Experiments were performed on tissues that were pulverized in liquid N2-cooled mortars in an anaerobic chamber, and then lysed in lysis buffer that was deaerated by cyclic freezethaw and air-removal with argon. […]
Lysates made from various brain regions of IRP2−/− mice that were maintained on a control diet or on a Tempo1-supplemented diet were analyzed for IRE binding activity of IRP1 and for TfR1, IRP1, and actin protein levels by gel-shift assay and Western blot. […] FIG. 3b is a quantification of the results as intensity of the bands relative to the control, represented here as 100%. Quantification was performed with the IQMac (IRP1 activity) or NIH Image (protein levels) program. Error bars represent the standard deviation calculated from the results of two different sets of animals.

With `CC1(C)CC(O)CC(C)(C)N1[O]` [Tempo1] the IRE-binding activity was “markedly increased”.
